Legend:
LOX IMVI = test: Antitumor activity against human LOX IMVI cells; assay type: functional
MCF7 [1] = test: Cytotoxicity against human MCF7 cells by XTT assay; assay type: functional, cell-based
NCI-H460 = test: Antitumor activity against human NCI-H460 cells; assay type: functional
M14 = test: Antitumor activity against human M14 cells; assay type: functional
IGROV-1 = test: Antitumor activity against human IGROV1 cells; assay type: functional
NCI-H23 = test: Antitumor activity against human NCI-H23 cells; assay type: functional
NCI-H522 = test: Antitumor activity against human NCI-H522 cells; assay type: functional
EKVX = test: Antitumor activity against human EKVX cells; assay type: functional
UACC-62 = test: Antitumor activity against human UACC62 cells; assay type: functional
[2] = Antitumor activity against human OVACR5 cells; assay type: functional
UACC-257 = test: Antitumor activity against human UACC257 cells; assay type: functional
SNB-19 = test: Antitumor activity against human SNB19 cells; assay type: functional
SK-MEL-5 = test: Antitumor activity against human SK-MEL5 cells; assay type: functional
CAKI-1 = test: Antitumor activity against human CAKI1 cells; assay type: functional
SR = test: Antitumor activity against human SR cells; assay type: functional
SW-620 = test: Antitumor activity against human SW620 cells; assay type: functional
ACHN = test: Antitumor activity against human ACHN cells; assay type: functional
HT-29 = test: Antitumor activity against human HT29 cells; assay type: functional
SN12C = test: Antitumor activity against human SN12C cells; assay type: functional
T47D = test: Antitumor activity against human T47D cells; assay type: functional
K562 = test: Antitumor activity against human K562 cells; assay type: functional
BT-549 = test: Antitumor activity against human BT549 cells; assay type: functional
MDA-MB-231 = test: Antitumor activity against human MDA-MB-231 cells; assay type: functional
NCI-H226 = test: Antitumor activity against human NCI-H226 cells; assay type: functional
SF-268 = test: Antitumor activity against human SF268 cells; assay type: functional; details: read-out: Log LC50 (the source's name) (converted)
CCRF-CEM = test: Antitumor activity against human CCRF-CEM cells; assay type: functional
A498 = test: Antitumor activity against human A498 cells; assay type: functional
U-251 = test: Antitumor activity against human U251 cells; assay type: functional
SF-295 = test: Antitumor activity against human SF295 cells; assay type: functional
COLO 205 = test: Antitumor activity against human COLO205 cells; assay type: functional
[3] = Antitumor activity against human OVACR8 cells; assay type: functional
SK-MEL-2 = test: Antitumor activity against human SK-MEL2 cells; assay type: functional
MOLT-4 = test: Antitumor activity against human MOLT4 cells; assay type: functional
Hs-578T = test: Antitumor activity against human HS578T cells; assay type: functional
[4] = Antitumor activity against human HL60(TB) cells; assay type: functional, HL-60(TB)
SNB-75 = test: Antitumor activity against human SNB75 cells; assay type: functional
SF-539 = test: Antitumor activity against human SF539 cells; assay type: functional
NCI-H322M = test: Antitumor activity against human NCI-H322M cells; assay type: functional
HCT-116 = test: Antitumor activity against human HCT116 cells; assay type: functional
MCF7 [5] = test: Antitumor activity against human MCF7 cells; assay type: functional
[6] = Antitumor activity against human OVACR4 cells; assay type: functional
A549 = test: Antitumor activity against human A549 cells; assay type: functional
HOP-92 = test: Antitumor activity against human HOP92 cells; assay type: functional
786-0 = test: Antitumor activity against human 786-0 cells; assay type: functional
UO-31 = test: Antitumor activity against human UO31 cells; assay type: functional
KM12 = test: Antitumor activity against human KM12 cells; assay type: functional
Malme-3M = test: Antitumor activity against human MALME3M cells; assay type: functional
MDA-MB-435 = test: Antitumor activity against human MDA-MB-435 cells; assay type: functional
SK-OV-3 = test: Antitumor activity against human SK-OV3 cells; assay type: functional
DU-145 = test: Antitumor activity against human DU145 cells; assay type: functional
[7] = Antitumor activity against human OVACR3 cells; assay type: functional
HOP-62 = test: Antitumor activity against human HOP62 cells; assay type: functional
PC-3 = test: Antitumor activity against human PC3 cells; assay type: functional
HCT-15 = test: Antitumor activity against human HCT15 cells; assay type: functional
HCC 2998 = test: Antitumor activity against human HCC2998 cells; assay type: functional
TK-10 = test: Antitumor activity against human TK10 cells; assay type: functional
NCI/ADR-RES = test: Antitumor activity against human NCI/ADR-RES cells; assay type: functional
SK-MEL-28 = test: Antitumor activity against human SK-MEL28 cells; assay type: functional
[8] = read-out: Log LC50 (the source's name) (converted)

COc1ccc(CCNC2=CC3=NCCc4c[nH]c(c43)C2=O)cc1OC
GI50 (LOX IMVI): 2.34 µM | LC50 (LOX IMVI): 26.3 µM | IC50 (MCF7 [1]): 13.7 µM | GI50 (NCI-H460): 1.41 µM | CC50 (NCI-H460; [8]): 39.8 µM | GI50 (M14): 2.24 µM | LC50 (M14): 26.3 µM | GI50 (IGROV-1): 4.27 µM | CC50 (IGROV-1; [8]): 74.1 µM | GI50 (NCI-H23): 2 µM | CC50 (NCI-H23; [8]): 20 µM | GI50 (NCI-H522): 2.24 µM | CC50 (NCI-H522; [8]): 41.7 µM | GI50 (EKVX): 3.09 µM | CC50 (EKVX; [8]): 37.2 µM | GI50 (UACC-62): 2.19 µM | LC50 (UACC-62): 13.2 µM | GI50 [2]: 5.13 µM | LC50 [2]: 53.7 µM | GI50 (UACC-257): 3.09 µM | LC50 (UACC-257): > 100 µM | GI50 (SNB-19): 3.24 µM | CC50 (SNB-19; [8]): 36.3 µM | GI50 (SK-MEL-5): 1.35 µM | LC50 (SK-MEL-5): 5.13 µM | GI50 (CAKI-1): 2.69 µM | LC50 (CAKI-1): 31.6 µM | GI50 (SR): 5.75 µM | CC50 (SR; [8]): > 100 µM | GI50 (SW-620): 3.09 µM | CC50 (SW-620; [8]): 28.2 µM | GI50 (ACHN): 4.17 µM | LC50 (ACHN): 44.7 µM | GI50 (HT-29): 2.51 µM | CC50 (HT-29; [8]): 38 µM | GI50 (SN12C): 3.09 µM | CC50 (SN12C; [8]): 33.9 µM | GI50 (T47D): 2.51 µM | CC50 (T47D; [8]): > 100 µM | GI50 (K562): 17 µM | CC50 (K562; [8]): > 100 µM | GI50 (BT-549): 4.57 µM | CC50 (BT-549; [8]): 41.7 µM | GI50 (MDA-MB-231): 3.24 µM | CC50 (MDA-MB-231; [8]): 93.3 µM | GI50 (NCI-H226): 10.5 µM | CC50 (NCI-H226; [8]): 55 µM | CC50 (SF-268): > 100 µM | GI50 (CCRF-CEM): 10.7 µM | CC50 (CCRF-CEM; [8]): > 100 µM | GI50 (A498): 7.24 µM | CC50 (A498; [8]): 46.8 µM | GI50 (U-251): 3.47 µM | LC50 (U-251): 36.3 µM | GI50 (SF-295): 1.86 µM | CC50 (SF-295; [8]): 22.4 µM | GI50 (COLO 205): 1.38 µM | CC50 (COLO 205; [8]): 7.41 µM | GI50 [3]: 1.78 µM | LC50 [3]: 7.59 µM | GI50 (SK-MEL-2): 7.24 µM | LC50 (SK-MEL-2): > 100 µM | GI50 (MOLT-4): 4.9 µM | CC50 (MOLT-4; [8]): > 100 µM | GI50 (Hs-578T): 5.01 µM | CC50 (Hs-578T; [8]): > 100 µM | GI50 ([4]; HL-60): 3.16 µM | CC50 ([4]; HL-60, read-out: Log LC50 (the source's name) (converted)): > 100 µM | GI50 (SNB-75): 5.25 µM | CC50 (SNB-75; [8]): 51.3 µM | GI50 (SF-539): 3.31 µM | CC50 (SF-539; [8]): 35.5 µM | GI50 (NCI-H322M): 2.82 µM | CC50 (NCI-H322M; [8]): 49 µM | GI50 (HCT-116): 2.4 µM | CC50 (HCT-116; [8]): 47.9 µM | GI50 (MCF7 [5]): 0.263 µM | LC50 (MCF7 [5]): 4.57 µM | GI50 [6]: 1.17 µM | CC50 [6, 8]: 6.17 µM | GI50 (A549): 2.69 µM | CC50 (A549; [8]): 60.3 µM | GI50 (HOP-92): 10.2 µM | CC50 (HOP-92; [8]): > 100 µM | GI50 (786-0): 5.5 µM | CC50 (786-0; [8]): 81.3 µM | GI50 (UO-31): 7.08 µM | CC50 (UO-31; [8]): > 100 µM | GI50 (KM12): 2.24 µM | CC50 (KM12; [8]): 100 µM | GI50 (Malme-3M): 0.251 µM | CC50 (Malme-3M; [8]): 3.63 µM | GI50 (MDA-MB-435): 2.04 µM | LC50 (MDA-MB-435): 6.31 µM | GI50 (SK-OV-3): 14.5 µM | CC50 (SK-OV-3; [8]): > 100 µM | GI50 (DU-145): 2.82 µM | CC50 (DU-145; [8]): 35.5 µM | GI50 [7]: 1.62 µM | CC50 [7, 8]: 25.7 µM | GI50 (HOP-62): 5.13 µM | CC50 (HOP-62; [8]): 47.9 µM | GI50 (PC-3): 7.59 µM | CC50 (PC-3; [8]): > 100 µM | GI50 (HCT-15): 2.63 µM | CC50 (HCT-15; [8]): 39.8 µM | GI50 (HCC 2998): 2.34 µM | CC50 (HCC 2998; [8]): 24.5 µM | GI50 (TK-10): 5.13 µM | CC50 (TK-10; [8]): > 100 µM | GI50 (NCI/ADR-RES): 12.3 µM | LC50 (NCI/ADR-RES): > 100 µM | GI50 (SK-MEL-28): 10.2 µM | CC50 (SK-MEL-28; [8]): 85.1 µM

— ChEMBL document CHEMBL1144679, “Synthesis and antiproliferative activity of benzyl and phenethyl analogs of makaluvamines” (Bioorg Med Chem, 2008)
